The values below come from paper PMC5006034 (Scientific Reports, 2016).

Structures are written as SMILES.

In the experiment the target is T1, hP2X2R (Homo sapiens, UniProt Q9UBL9).
T1 construct: gene P2RX2
T1 sequence (Q9UBL9 1-471): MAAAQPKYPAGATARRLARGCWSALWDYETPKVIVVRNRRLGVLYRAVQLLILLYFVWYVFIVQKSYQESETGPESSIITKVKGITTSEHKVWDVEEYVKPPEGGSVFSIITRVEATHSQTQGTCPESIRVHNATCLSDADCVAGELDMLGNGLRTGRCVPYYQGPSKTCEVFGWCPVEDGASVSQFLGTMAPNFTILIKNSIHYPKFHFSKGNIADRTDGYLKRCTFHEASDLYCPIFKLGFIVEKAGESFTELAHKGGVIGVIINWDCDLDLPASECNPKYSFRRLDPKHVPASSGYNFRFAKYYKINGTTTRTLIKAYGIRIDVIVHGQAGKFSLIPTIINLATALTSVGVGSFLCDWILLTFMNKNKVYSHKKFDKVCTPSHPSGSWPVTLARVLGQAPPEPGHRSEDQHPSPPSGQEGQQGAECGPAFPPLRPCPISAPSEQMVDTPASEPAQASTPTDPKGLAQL
The experiment can be described thus: Ca2+ imaging in cells expressing hP2X2R (outsourced selectivity assay). Format: cell-based.

In the case of `O=C1CC(=O)N(c2cccc(-c3noc(=S)[nH]3)c2)c2ccc3ccccc3c2N1` [NP-1815-PX, 5-[3-(5-thioxo-4H-[1,2,4]oxadiazol-3-yl)phenyl]-1H-naphtho[1,2-b][1,4]diazepine-2,4(3H,5H)-dione], it took 7.3 µM to reach half-maximal inhibition (IC50). This counts as single-digit micromolar.
